Drawing on the NIST ThermoML archive (doi:10.1016/j.jct.2012.08.024), this text covers viscosity and mass density for 2 compounds.

The conditions of this series: 101.33 kPa, Liquid; for viscosity: Capillary tube (Ostwald / Ubbelohde) method; for mass density: Vibrating tube method.

Numbers after ± are expanded uncertainties.

With `CCO` [ethanol], the viscosity runs as follows: (298.15 K) 1.087 ± 0.016 mPa·s; (303.15 K) 0.99 ± 0.02 mPa·s; (308.15 K) 0.905 ± 0.013 mPa·s; (313.15 K) 0.829 ± 0.012 mPa·s; (318.15 K) 0.761 ± 0.011 mPa·s; (323.15 K) 0.706 ± 0.01 mPa·s. For the same compound, where the note is “328.15 K”, the viscosity came to 0.648 ± 0.009 mPa·s. In addition, the mass density is 785.07 ± 0.15 kg/m3 (298.15 K); 780.75 ± 0.15 kg/m3 (303.15 K); 776.41 ± 0.15 kg/m3 (308.15 K); 772.02 ± 0.15 kg/m3 (313.15 K); 767.59 ± 0.15 kg/m3 (318.15 K); 763.11 ± 0.15 kg/m3 (323.15 K). In addition, for the setting “328.15 K”, the mass density is on record as 758.58 ± 0.16 kg/m3.
For the compound `OCCO` [1,2-ethanediol], the viscosity was 16.61 ± 0.23 mPa·s (298.15 K); 13.58 ± 0.18 mPa·s (303.15 K); 11.24 ± 0.15 mPa·s (308.15 K); 9.404 ± 0.13 mPa·s (313.15 K); 7.945 ± 0.11 mPa·s (318.15 K); 6.774 ± 0.094 mPa·s (323.15 K). For the same compound, the viscosity (328.15 K) was 5.826 ± 0.081 mPa·s. Moreover, the mass density was found to be 1106.38 ± 0.08 kg/m3 (303.15 K), 1099.31 ± 0.08 kg/m3 (313.15 K) and 1092.16 ± 0.08 kg/m3 (323.15 K).
